ChEMBL document CHEMBL4431377, “Design, Synthesis, and Characterization of Sulfamide and Sulfamate Nucleotidomimetic Inhibitors of hHint1” (ACS Med Chem Lett, 2016)

Legend:
[1] = target: T1, Adenosine 5'-monophosphoramidase HINT1 (Homo sapiens, UniProt P49773); test: Inhibition of His-tagged human full length HINT1 expressed in Rosetta2 pLysS cells using TrpAMP as substrate measured for 2 to 30 mins by fluorescence assay
[2] = target: T1, Adenosine 5'-monophosphoramidase HINT1; test: Binding affinity to recombinant human HINT1 by isothermal titration calorimetric assay
[3] = target: T1, Adenosine 5'-monophosphoramidase HINT1; test: Binding affinity to His-tagged human full length HINT1 expressed in Rosetta2 pLysS cells by isothermal titration calorimetric assay
[4] = Aqueous solubility of the compound in aqueous buffer at 20 mM; assay type: physicochemical; details: 20000 µM
[5] = Stability of the compound in PBS buffer assessed as cyclonucleoside formation at 50 to 100 uM by HPLC analysis; assay type: physicochemical
[6] = Aqueous solubility of the compound in aqueous buffer at 5 mM; assay type: physicochemical; details: 5000 µM

T1 sequence (P49773 whole entry): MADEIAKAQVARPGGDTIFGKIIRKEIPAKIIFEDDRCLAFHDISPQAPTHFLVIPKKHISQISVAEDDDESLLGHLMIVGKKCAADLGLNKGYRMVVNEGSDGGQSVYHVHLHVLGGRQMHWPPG

Compound | IC50 [1] [nM] | inhibition [1] | Kd [3] [nM] | solubility [6] | other results
Nc1nc2c(ncn2[C@@H]2O[C@H](COC(=O)NCCc3c[nH]c4ccccc34)[C@@H](O)[C@H]2O)c(=O)[nH]1 | 25500 | Dose-dependent effect | – | – | Kd [2]: 3650 nM
Nc1ncnc2c1ncn2[C@@H]1O[C@H](CNS(=O)(=O)NC(=O)CCCC[C@@H]2SC[C@@H]3NC(=O)N[C@@H]32)[C@@H](O)[C@H]1O | 1000 | Dose-dependent effect | 320 | – | –
CCN(CC)CC.O=C(CCc1c[nH]c2ccccc12)NS(=O)(=O)OC[C@H]1O[C@@H](n2cnc3c2ncn2ccnc32)[C@H](O)[C@@H]1O | – | – | – | – | solubility [4]: Soluble; Stability [5]: Stable
CCCC(=O)NS(=O)(=O)OC[C@H]1O[C@@H](n2cnc3c(=O)[nH]c(N)nc32)[C@H](O)[C@@H]1O.CCN(CC)CC | – | – | 2900 | Soluble | –
CCN(CC)CC.Nc1nc2c(ncn2[C@@H]2O[C@H](COS(=O)(=O)NC(=O)CCc3c[nH]c4ccccc34)[C@@H](O)[C@H]2O)c(=O)[nH]1 | – | – | 810 | Soluble | –
CCN(CC)CC.Nc1nc2c(ncn2[C@@H]2O[C@H](CNS(=O)(=O)NC(=O)CCc3c[nH]c4ccccc34)[C@@H](O)[C@H]2O)c(=O)[nH]1 | – | – | 920 | Soluble | –
